Measurements reported in patent US20180296523A1, “USE OF POLYMETHOXYLATED FLAVONES TO AMELIORATE CIRCADIAN RHYTHM DISORDERS” (THE BOARD OF REGENTS OF THE UNIVERSITY OF TEXAS SY, priority 2017, published 2018).

Tests used:
RORγt = molecular target: T1, RORγt (Homo sapiens, UniProt P51449); details: Huh et al., 2011; cited from earlier work
T1 sequence (P51449 1-497 isoform P51449-2): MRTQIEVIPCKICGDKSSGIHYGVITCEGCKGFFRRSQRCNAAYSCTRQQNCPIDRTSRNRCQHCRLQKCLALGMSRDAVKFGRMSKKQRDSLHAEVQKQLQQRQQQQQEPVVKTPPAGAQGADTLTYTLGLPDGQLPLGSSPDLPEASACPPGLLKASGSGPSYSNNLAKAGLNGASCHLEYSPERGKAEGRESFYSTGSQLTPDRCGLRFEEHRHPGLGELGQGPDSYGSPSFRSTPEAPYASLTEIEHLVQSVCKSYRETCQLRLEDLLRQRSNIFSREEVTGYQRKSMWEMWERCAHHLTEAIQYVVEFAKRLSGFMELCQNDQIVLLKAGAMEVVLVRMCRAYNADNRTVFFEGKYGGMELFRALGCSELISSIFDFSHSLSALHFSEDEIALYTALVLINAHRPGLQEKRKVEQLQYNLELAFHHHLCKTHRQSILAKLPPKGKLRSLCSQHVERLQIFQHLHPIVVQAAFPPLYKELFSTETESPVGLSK

regular chow-fed mice = assay: Metabolic homeostasis in regular chow-fed mice; type: in vivo, mouse; details: regular chow (RC) feeding, 9-week treatment
Experimental: Weekly body weight was monitored in different treatment mice for 10 weeks. Body mass composition was measured at the end of experiments using a minispec mqNMR spectrometer (Bruker Optics, Texas) (Garcia et al., 2013). A control group of mice were fed with regular chow diet (Purina 5001) in parallel with the two treatment groups in HFD. For db/db and db/db Clock^Δ19/Δ19 mice, male mice at 6-8 weeks of age were group-housed (2-3/cage) and maintained on regular chow diets. Mice were subjected to oral gavage with either DMSO or NOB as described above.
Glucose tolerance test (GTT) and insulin tolerance test (ITT) were performed largely as described (He et al., 2015; Jeong et al., 2015). Briefly, after overnight and 5-hr fasting, GTT and ITT were conducted at ZT2 and ZT8 respectively. Glucose levels were measured from tail blood before and 15, 30, 60, or 120 min after injection of either 1 g/kg glucose or 0.75 U/kg insulin (Sigma) at ZT2 and ZT8 respectively by using the ONETOUCH UltraMini blood glucose monitoring system (LifeScan). Serum insulin levels were measured with the Rat/Mouse Insulin Elisa kit (Millipore) according to the manufacturer's instructions. The plasma samples were collected at ZT2 as described above for lipid assays.

Cps1 gene = details: Clock^Δ19/Δ19 mutant mice; cited from earlier work
[1] = other studies (Kumar et al., 2012; Singh et al., 2011); cited from earlier work
[2] = system: peripheral tissue explants from PER2::Luc reporter mice; assay: PER2::Luc reporter rhythms in peripheral tissue explants; type: cell-based, mouse
Experimental: The chemical screen for circadian clock modulators was conducted at the Chemical Genomics Core facility at the UTHSC-H. The in-house chemical library screened consists of compounds from NIH Clinical Collection, NCI collection and Microsource Spectrum Collection. The screening was conducted largely based on the protocol previously described (Chen et al., 2012). Briefly, 15,000 immortalized fibroblast cells from Clock^Δ19/+ heterozygous mice expressing the PER2::Luc bioluminescence reporter were plated into each well of 96-well plates, and incubated for 3-4 d to allow growth to confluency. Cells were then incubated with 5 μM forskolin for 1-2 h followed by the addition of chemical compounds to the plates with robotic arms (Beckman), and then subjected to continuous monitoring over several days in a temperature-controlled EnVision microplate reader (Perkin Elmer). Data analysis was carried out by using the MultiCycle software (Actimetrics) for measurement of period, phase, and amplitude. […] NOB and a structurally related analog Naringin (NAR) were re-ordered from commercial sources including Sigma and GenDEPOT and dose response validation was conducted using PER2::LucSV reporter fibroblast cells which express stronger bioluminescence signals and thus allow precise measurements of circadian clock effects of compounds (Chen et al., 2012). Tissue explant experiments were conducted as described previously (Chen et al., 2012).

[3] = Pharmacokinetic study in mice (LC-MS/MS); type: in vivo; details: mouse, oral gavage 200 mg/kg; for exposure in plasma/serum, brain and liver: single dose, 200 mg/kg
Experimental: For diet-induced obesity, male mice at 6 weeks of age were fed with HFD (D12492, Research Diets) until the end of the experimental protocol. The mice were treated with either vehicle (DMSO) or NOB (200 mg/kg body weight) via oral gavage every other day, in the time window of ZT8-10, throughout the experimental period. An every-other-day dosing regimen was chosen at the indicated level based on several reasons. First, previous in vivo studies have used similar overall amounts for mouse treatment (100-125 mg/kg/day) (Lee et al., 2013; Li et al., 2006). The oral gavage procedure was done in late afternoon (ZT8-10) prior to the start of their active phase, reasoning that this may coincide with the time-window adopted by previous studies. Second, daily dosing was not chosen to avoid entraining the experimental mice with the procedure per se as an artificial zeitgeber. Furthermore, pilot pharmacokinetic (PK) assays were done under a single-dose condition (Fig. S7). […] Therefore, it was reasoned that every-other day dosing helps avoid any incomplete daily clearance over the chronic experimental period (10 weeks). NOB was administered orally at ZT8 at a dose of 200 mg/kg in 0.25% sodium Carboxy Methyl Cellulose (CMC) suspension. Three mice per time point were sacrificed at 0.0, 1.0, 2.0, 4.0, 8.0 and 24.0 hr after oral gavage. NOB in plasma, brain and liver was determined by LC-MS/MS (API 4000: EQ-RS-MS-006).

## COc1ccc(-c2cc(=O)c3c(OC)c(OC)c(OC)c(OC)c3o2)cc1OC [nobiletin]
RORγt
  effect on RORγt in primary screen: activated RORγt
Regular chow-fed mice
  metabolic homeostasis: did not show significantly beneficial effects
Regular chow-fed mice; listed as NOB
  metabolic homeostasis: did not effect metabolic homeostasis
Cps1 gene
  transcriptional induction of the Cps1 gene: impaired
[1]
  NOB levels 24 hr after administration: able to measure NOB levels 24 hr after administration
[2]; PER2::Luc Clock^Δ19/+ reporter mice
  reporter rhythm in pituitary explants: Clock-enhancing effects
[2]; PER2::Luc WT reporter mice
  reporter rhythm in liver explant: Clock-enhancing effects
  reporter rhythm in lung explant: Clock-enhancing effects
  reporter rhythm in pituitary explants: Clock-enhancing effects
[2]; from both Clock^Δ19/+ and WT reporter knockin mice
  PER2::Luc reporter rhythms in peripheral tissue explants: enhanced PER2::Luc reporter rhythms
[3]
  NOB level 8 hr after single-dose administration: undetectable
  exposure in plasma/serum, brain and liver: significant brain and systemic exposure
[3]; listed as NOB
  exposure in plasma/serum, brain and liver: significant exposure in serum, brain and particularly liver
